Read-outs that look alike come from different tables or passages of the source.
Tested on: SARS-CoV-2 strains and variants (wild-type, Delta, Omicron BA.1.1, BA.2.3, BA.4, BA.5)
Test: Antiviral CPE assay in Vero E6 cells, summary over all tested strains
Type: cell-based
Conditions: Severe acute respiratory syndrome coronavirus 2, Vero C1008

| SMILES | EC50 (read-out: EC50 values against a range of SARS-CoV-2 variants) | EC50 (read-out: EC50 for the tested SARS-CoV-2 strains and variants) |
| --- | --- | --- |
| O=C(O)C[C@@H]1C(=O)O[C@H]2[C@@H]3OC(=O)c4cc(O)c(O)c(O)c4-c4c(cc(O)c(O)c4O)C(=O)OC[C@H]2O[C@@H](OC(=O)c2cc(O)c(O)c(O)c2)[C@@H]3OC(=O)c2cc(O)c(O)c3c2[C@H]1[C@H](O)C(=O)O3 [CHLA, chebulagic acid] | < 2000 nM |  |
| CC(C)(C)[C@H](NC(=O)C(F)(F)F)C(=O)N1C[C@H]2[C@@H]([C@H]1C(=O)N[C@H](C#N)C[C@@H]1CCNC1=O)C2(C)C [PF-07321332, reference compound] |  | ~50 nM |

Reference: PMC12648101, “Targeting SARS-CoV-2 main protease for the discovery of a broad-spectrum COVID-19 inhibitor by intensive multi-tiered validation” (Acta Pharmaceutica Sinica. B, 2025)
